Results as given in patent publication US9987302B2, “Methods of treating DNA damage” (priority 2011, dated 2018).

How the values were obtained:
[1] = tested on: H2AXγ foci in tissues; assay: DNA damage (H2AXγ foci) in tissues of nude mice with PC3 tumors treated with doxorubicin ± CO; format: in vivo
Experimental: Based on the effects observed in vitro, the salutary effects of CO were tested in an in vivo model of DNA damage in mice. Tissues were harvested 14 days after treatment of nude mice with established PC3 tumors (2 weeks) with […] (Control) or doxorubicin (8 mg/kg, twice per week, i.v.)±CO (daily, 1 hour, 250 ppm). Doxorubicin was employed to induce DNA damage in the tissues during chemotherapeutic treatment of tumor xenografts in nude mice.
Nu/nu mice were purchased from Taconic (Hudson, N.Y.) at 7 weeks of age. Those mice were used in a complementary experiment of a subcutaneous tumor model of PC3 cells injected into the right flank of mice. Doxorubicin (8 mg/kg, Sigma) was given i.v. twice per week and mice were exposed to CO daily (250 ppm for 1 hour). Tissues were harvested after 2 weeks of treatment.

[2] = tested on: fibroblasts from Hmox1+/+ and Hmox1−/− mice; assay: H2AX phosphorylation / γ-H2AX foci in mouse fibroblasts treated with genotoxins; format: cell-based; settings: doxorubicin 10 μg/ml, camptothecin 1 μg/ml; for phosphorylation of histone H2AX and γ-H2AX foci: Hmox+/+ fibroblasts
Experimental: Representative pictures are shown from at least two independent experiments in duplicates. Fibroblasts were treated with doxorubicin (10 μg/ml) for 2-4 hr.
(§1) U203 HR/SCR cells were maintained in the DMEM medium (Gibco, Invitrogen) containing 10% FBS and antibiotics. pPHW1 cells (NHEJ model) were maintained in the DMEM medium with 10% FBS and antibiotics. Mouse kidney fibroblasts were obtained from adult Hmox1^−/− and Hmox1^+/+ mice and culture between passages 4-7 in DMEM medium supplemented with 10% FBS and antibiotics. HEK293 were purchased from ATCC and were cultured following manufacturer's protocol. For CO in vitro studies, cells were exposed to 250 ppm CO, 5% CO2 in […] for 2 minutes to 24 hours. Cells were irradiated with 10 Gy and harvested at different time points after single exposure.

[3] = tested on: HEK293 cells; assay: Western blot of DNA repair signaling in HEK293 cells treated with genotoxins; format: cell-based; settings: 2 min to 2 h
Experimental: The direct effects of HO-1 was tested on signaling pathways in response to the DNA damaging agents, doxorubicin, camptothecin, or irradiation in loss and gain of function studies with HO-1. HEK293cells express high basal levels of HO-1 due to presence of large T antigen. HEK293 cells were transduced with micro-adapted shRNA to stably deplete HO-1 and then exposed to camptothecin, doxorubicin or irradiation. HEK293 cells with stable knockdown of HO-1 (mirHO-1) and control cells were treated with camptothecin (1 μg/ml) for 2′-2 h. The levels of HO-1 and DNA repair signaling proteins activation was measured by Western blot.
The status of the major DNA repair kinases, ATR, and ATM and their downstream targets was evaluated in HEK293 cells treated with camptothecin.
HEK mirHO-1 and control cells treated with doxorubicin (10 μg/ml) for 2′-2 h is shown. […] Akt is a loading control for the immunoblot for P-p53.

[4] = tested on: U2OS-SCR reporter cells; assay: HR/SCR reporter assay (GFP-positive cells by flow cytometry and fluorescence microscopy); format: cell-based; settings: for number of GFP-positive cells (HR repair of DSB): U2OS-SCR cells transfected with SceI 24 hours, then treated 24 hours, CO 250 ppm; for CO-mediated HR (GFP-positive cells) under ATM/ATR blockade: inhibitor 20 μM 1 hour prior to CO 250 ppm for 24 hours
Source text: To test this, the U20S cell line containing the HR/SCR (homologous recombination/sister chromatid recombination) reporter was used as previously described (12,13). I-SceI endonuclease was used to introduce a double strand break (DSB) within the reporter in U2OS cells. The efficiency of homologous recombination induced by I-SceI correlated with generation of wild type GFP by gene conversion.
(§2) Many of the effects observed with HO-1 are mediated by one or more of its enzymatic products biliverdin or CO. Therefore, the role of biliverdin and CO was tested separately in HR during DSB and DNA repair. U2OS-SCR reporter cells after transfection with SceI for 24 hours were treated with CO 250 (ppm) for 24 hours. […] No effects of CO were observed on NHEJ-mediated DNA repair as measured by number of XHATM-resistant colonies.
(§3) Lysates of PC3 and HEK cells were treated with CO (250 ppm) for 2′ to 1 h. […] Therefore, the two major DNA repair kinases, ATM and ATR, were examined to see if they are implicated in accelerated HR in the presence of CO or HO-1. […] U20S-SCR reporter cells were transfected with SceI for 24 hours and treated with CGK733 (20 μM) or DMSO for 1 hour prior treatment with CO (250 ppm) for 24 hours. U20S-SCR reporter cells were co-transfected with SceI for 24 hours and KU55933 (20 μM) or DMSO for 1 hour prior treatment with CO (250 ppm) was applied for following 24 hours. […] U20S-SCR reporter cells were co-transfected with SceI and HO-1 for 24 hours and CGK733 was applied for following 24 hours.
as §1
HR/SCR reporter U20S cells were used as previously described. Briefly, GFP+ cells were analyzed 2 days postransfection by flow cytometry (FACScan, BD Biosciences) and fluorescence microscopy. Images of GFP-positive cells were captured of randomized fields using a Zeiss Apotome fluorescent microscope.

[5] = tested on: irradiated mice; assay: Radiation-induced model of DNA damage (lethal irradiation, 10 Gy); format: in vivo
Experimental: To support the observations with chemical genotoxins, a radiation-induced model of DNA damage was also used. Endogenous HO-1 is induced early in response to IR or doxorubicin and its expression is sustained for 24-72 hours in the spleen, liver and kidney (FIGS. 7A-B). Kidneys and spleen were harvested after 2 hours after irradiation. To evaluate the role of exogenous CO, mice were pretreated with CO for 1 hour prior to either a lethal or sublethal dose of irradiation and then daily for 1 hour. Spleens and intestines of mice were pretreated with Air or CO (250 ppm) 1 hour prior lethal dose of irradiation (10 Gy) and treated daily with CO for 11 days. […] Tissues were harvested 2 hours after irradiation. To evaluate the role of H2AX signaling in CO effects on DNA repair, marginal bone marrow transplantation of BM cells from H2ax^−/− and H2ax^+/+ mice into wild type irradiated recipients was used. Mice were treated with CO prior lethal dose of irradiation (10 Gy) and thereafter after receiving BM.
Male C57BL/6 mice 7-9 weeks of age were purchased from Jackson Laboratories (Bar Harbor, Me.). Mice were held under SPF conditions and the experiments were approved by the IACUC at BIDMC. Mice were irradiated with 10 Gy (lethal dose) or 5 Gy (sublethal dose) and the protocol was approved by Radiation Safety Officer at BIDMC and the IACUC. Mice were exposed in plexiglass chamber to CO for 1 hour, 250 ppm prior irradiation and thereafter every day for 1 hour.
Mice were lethally irradiated and transplanted with […] i.v. immediately after irradiation. The amount of injected BM was sufficient for recovery of 40% mice.

[6] = tested on: lung and intestine gene expression; assay: Gene expression in tissues of mice exposed to inhaled CO (real time PCR); format: in vivo
Experimental: This is important given that the lung has such a high rate of cellular turnover. The increase in expression of these genes is associated with decreased senescence and extension of life span.
Male C57Bl/6 mice were exposed to inhaled carbon monoxide at 250 parts per million (ppm) for 1 hour. […] Real time PCR for telomerase in lungs, and topoisomerase (responsible for unwinding of DNA) and p16 (cell cycle suppressor) in intestines was performed, and expression was compared to air-exposed controls (FIG. 10). Results represent mean±SD of at least 3 mice/group, * p<0.05.

[7] = tested on: pPHW1 cells (NHEJ model); assay: NHEJ-mediated DNA repair (number of XHATM-resistant colonies); format: cell-based
Experimental: as §2, §1

[8] = tested on: HEK cells; assay: Immunoblot of DNA repair signaling after CO exposure; format: cell-based; settings: CO 250 ppm, 2 minutes to 1 h
Experimental: as §3, §1

[9] = CO 250 ppm 1 hour, harvested immediately, versus air
[10] = CO 1 hour, harvested at 24 hours

## COc1cccc2c1C(=O)c1c(O)c3c(c(O)c1C2=O)C[C@@](O)(C(=O)CO)C[C@@H]3O[C@H]1C[C@H](N)[C@H](O)[C@H](C)O1 [Doxorubicin, doxorubicin]
[1]; doxorubicin 8 mg/kg i.v. twice per week, 14 days, lung, liver, kidney and colon
  DNA damage by accumulation of H2AXγ foci: substantial DNA damage
[2]; Hmox1−/− fibroblasts
  γ-H2AX foci formation: no γ-H2AX foci formation
[2]
  phosphorylation of histone H2AX and γ-H2AX foci: strong increase
[3]; HEK293 cells, doxorubicin 10 μg/ml
  phosphorylation of ATM, p53 and H2AX: increase

## C=CC1=C(C)/C(=C/C2=NC(=C\c3[nH]c(/C=C4\NC(=O)C(C)=C4C=C)c(C)c3CCC(=O)O)/C(CCC(=O)O)=C2C)NC1=O [Biliverdin, biliverdin]
[4]
  number of GFP-positive cells (HR repair of DSB): no effect

## [C-]#[O+] [CO, carbon monoxide]
[1]; CO daily, 1 hour, 250 ppm, with doxorubicin
  severity of doxorubicin-induced DNA damage (H2AXγ) in all organs: significantly decreased
[5]; CO 250 ppm 1 hour prior to 10 Gy, then daily for 11 days
  sustained H2AXγ foci formation in spleen and intestine: significant inhibition
[5]; CO 1 hour prior to irradiation, tissues harvested 2 hours after irradiation, versus air
  P-p53, P-Brca1, P-ATM and early P-H2AX in peripheral blood mononuclear cells and bone marrow: strong induction
[5]; lethal irradiation, CO 250 ppm 1 hour prior and daily, n=6/group, p=0.031 versus air (50%)
  survival rate, mice alive >10 days: 80%
[5]; marginal bone marrow transplantation into wild type recipients irradiated with 10 Gy
  CO-mediated protection against irradiation-induced death with H2ax−/− donor BM: reversed
[6]; [9]
  expression of p16 in intestines: increases expression
  expression of telomerase in lungs: increases expression
  expression of topoisomerase in intestines: increases expression
[6]; [10]
  expression of SIRT1 in the lung: increased expression
  expression of TERT in the lung: increased expression
[7]
  NHEJ-mediated DNA repair, number of XHATM-resistant colonies: No effects
[4]
  number of GFP-positive cells (HR repair of DSB): significantly increased
[8]
  phosphorylation of Brca1, ATR and ATM: induced rapid phosphorylation

## O=c1cc(-c2cccc3c2Sc2ccccc2S3)oc(N2CCOCC2)c1 [KU55933]
[4]
  CO-mediated HR (GFP-positive cells) under ATM/ATR blockade: significantly decreased

## O=C(NC(NC(=S)Nc1ccc(F)c([N+](=O)[O-])c1)C(Cl)(Cl)Cl)C(c1ccccc1)c1ccccc1 (centres unmarked) [CGK733]
[4]; co-transfected with SceI and HO-1 for 24 hours, inhibitor applied following 24 hours
  HO-1-induced HR (GFP-positive cells) in presence of inhibitor: did not increase HR
[4]
  CO-mediated HR (GFP-positive cells) under ATM/ATR blockade: significantly decreased

## CC[C@@]1(O)C(=O)OCc2c1cc1n(c2=O)Cc2cc3ccccc3nc2-1 [camptothecin]
[2]
  phosphorylation of histone H2AX and γ-H2AX foci: strong increase
[3]; wild-type HEK293 cells, camptothecin 1 μg/ml
  phosphorylation of H2AX: induced phosphorylation
